Data: ChEMBL document CHEMBL1201862, “PubChem BioAssay data set” (2004)
The source made the active and inactive calls.

Assays:
[1] = biological target: T1, Alkaline phosphatase, tissue-nonspecific isozyme (Homo sapiens, UniProt P05186); assay: human TNAP enzyme inhibitors, SAR follow-up, biochemical, luminescent, dose response (AID 1056)
T1 sequence (P05186 whole entry): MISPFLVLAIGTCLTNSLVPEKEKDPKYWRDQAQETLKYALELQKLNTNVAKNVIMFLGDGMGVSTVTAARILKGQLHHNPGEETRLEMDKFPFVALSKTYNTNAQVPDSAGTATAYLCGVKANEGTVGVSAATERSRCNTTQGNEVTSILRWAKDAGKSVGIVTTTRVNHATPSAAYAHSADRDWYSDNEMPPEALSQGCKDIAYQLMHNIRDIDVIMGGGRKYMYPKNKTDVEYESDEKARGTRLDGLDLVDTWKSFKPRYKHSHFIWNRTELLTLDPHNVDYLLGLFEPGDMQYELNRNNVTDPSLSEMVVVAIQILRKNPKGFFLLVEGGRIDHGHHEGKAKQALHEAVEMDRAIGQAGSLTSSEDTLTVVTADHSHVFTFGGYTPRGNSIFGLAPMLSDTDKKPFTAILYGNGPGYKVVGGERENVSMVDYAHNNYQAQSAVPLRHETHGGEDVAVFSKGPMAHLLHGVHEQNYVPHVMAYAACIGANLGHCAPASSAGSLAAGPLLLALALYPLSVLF

[2] = biological target: Alkaline phosphatase, placental type (Homo sapiens, UniProt P05187); assay: PLAP enzyme inhibitors, confirmation, biochemical, luminescence (AID 1512); type: functional
Chain of Alkaline phosphatase, placental type (P05187 whole entry): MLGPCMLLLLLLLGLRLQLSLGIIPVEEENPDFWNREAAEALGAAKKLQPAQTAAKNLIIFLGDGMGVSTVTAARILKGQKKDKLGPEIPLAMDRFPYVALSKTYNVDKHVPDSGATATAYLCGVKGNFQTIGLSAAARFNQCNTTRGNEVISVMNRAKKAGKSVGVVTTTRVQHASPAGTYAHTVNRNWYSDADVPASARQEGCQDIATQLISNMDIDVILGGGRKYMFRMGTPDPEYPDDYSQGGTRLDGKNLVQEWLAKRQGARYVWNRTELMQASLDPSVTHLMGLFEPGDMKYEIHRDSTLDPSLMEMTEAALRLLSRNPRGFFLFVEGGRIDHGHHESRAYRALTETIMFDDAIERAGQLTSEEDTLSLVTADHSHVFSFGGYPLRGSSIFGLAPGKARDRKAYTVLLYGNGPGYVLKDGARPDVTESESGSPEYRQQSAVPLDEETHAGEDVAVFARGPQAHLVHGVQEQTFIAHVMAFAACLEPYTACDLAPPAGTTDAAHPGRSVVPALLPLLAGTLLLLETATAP

Paired box protein Pax-8 = Paired box protein Pax-8 (Homo sapiens, UniProt Q06710); assay: inhibitors of PAX8-driven TPO luciferase reporter, dose response, RMG-I cells, cherry-pick (AID 687027); type: functional, cell-based;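 note: luciferase reporter driven by Pax8 target thyroperoxidase promoter measured by SteadyGlo luminescence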
Chain of Paired box protein Pax-8 (Q06710 whole entry): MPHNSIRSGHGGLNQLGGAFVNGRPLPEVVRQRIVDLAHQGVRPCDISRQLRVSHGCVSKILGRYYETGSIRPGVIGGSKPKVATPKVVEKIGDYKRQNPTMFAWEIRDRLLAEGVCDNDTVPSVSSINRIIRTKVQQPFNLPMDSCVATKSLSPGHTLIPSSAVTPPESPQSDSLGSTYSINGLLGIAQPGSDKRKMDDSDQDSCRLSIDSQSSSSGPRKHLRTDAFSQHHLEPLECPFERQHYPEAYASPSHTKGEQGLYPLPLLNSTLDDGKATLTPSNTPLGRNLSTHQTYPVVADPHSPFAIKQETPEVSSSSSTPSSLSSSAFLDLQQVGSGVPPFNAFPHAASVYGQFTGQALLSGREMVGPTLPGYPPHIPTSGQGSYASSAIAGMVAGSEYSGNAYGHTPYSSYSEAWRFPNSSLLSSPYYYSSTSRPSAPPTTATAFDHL

Vero [3] = assay: cells; type: functional; conditions: Chlorocebus sabaeus
NS3 = NS3 (Hepatitis C virus, UniProt A3EZJ3); assay: PubChem AID 2173; parameters: species or system Hepacivirus hominis
Chain of NS3 (A3EZJ3 whole entry): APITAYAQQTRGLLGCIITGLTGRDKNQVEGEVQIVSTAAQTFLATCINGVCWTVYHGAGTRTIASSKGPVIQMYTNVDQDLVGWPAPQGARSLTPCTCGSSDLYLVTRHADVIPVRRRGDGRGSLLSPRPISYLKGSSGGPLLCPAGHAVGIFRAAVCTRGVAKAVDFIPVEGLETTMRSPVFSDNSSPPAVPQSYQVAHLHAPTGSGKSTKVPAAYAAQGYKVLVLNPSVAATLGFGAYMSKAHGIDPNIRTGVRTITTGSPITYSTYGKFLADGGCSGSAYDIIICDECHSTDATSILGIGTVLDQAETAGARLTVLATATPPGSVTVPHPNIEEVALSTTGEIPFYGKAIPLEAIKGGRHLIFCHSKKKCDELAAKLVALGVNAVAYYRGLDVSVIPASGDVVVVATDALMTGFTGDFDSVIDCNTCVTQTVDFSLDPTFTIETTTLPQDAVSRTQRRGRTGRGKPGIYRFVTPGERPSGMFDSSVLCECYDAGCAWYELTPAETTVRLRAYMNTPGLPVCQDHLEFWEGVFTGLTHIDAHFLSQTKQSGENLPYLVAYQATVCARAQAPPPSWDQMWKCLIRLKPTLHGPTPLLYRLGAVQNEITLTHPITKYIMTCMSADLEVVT

Vero [4] = assay: cells; type: functional, cell-based; conditions: Chlorocebus sabaeus
[5] = biological target: Nucleotide-binding oligomerization domain-containing protein 2 (Homo sapiens, UniProt Q9HC29); assay: NOD2 signaling inhibitors, cell-based, luminescence, uHTS, HEK293 (AID 1566); type: functional
Chain of Nucleotide-binding oligomerization domain-containing protein 2 (Q9HC29 whole entry, the tested form may be a part): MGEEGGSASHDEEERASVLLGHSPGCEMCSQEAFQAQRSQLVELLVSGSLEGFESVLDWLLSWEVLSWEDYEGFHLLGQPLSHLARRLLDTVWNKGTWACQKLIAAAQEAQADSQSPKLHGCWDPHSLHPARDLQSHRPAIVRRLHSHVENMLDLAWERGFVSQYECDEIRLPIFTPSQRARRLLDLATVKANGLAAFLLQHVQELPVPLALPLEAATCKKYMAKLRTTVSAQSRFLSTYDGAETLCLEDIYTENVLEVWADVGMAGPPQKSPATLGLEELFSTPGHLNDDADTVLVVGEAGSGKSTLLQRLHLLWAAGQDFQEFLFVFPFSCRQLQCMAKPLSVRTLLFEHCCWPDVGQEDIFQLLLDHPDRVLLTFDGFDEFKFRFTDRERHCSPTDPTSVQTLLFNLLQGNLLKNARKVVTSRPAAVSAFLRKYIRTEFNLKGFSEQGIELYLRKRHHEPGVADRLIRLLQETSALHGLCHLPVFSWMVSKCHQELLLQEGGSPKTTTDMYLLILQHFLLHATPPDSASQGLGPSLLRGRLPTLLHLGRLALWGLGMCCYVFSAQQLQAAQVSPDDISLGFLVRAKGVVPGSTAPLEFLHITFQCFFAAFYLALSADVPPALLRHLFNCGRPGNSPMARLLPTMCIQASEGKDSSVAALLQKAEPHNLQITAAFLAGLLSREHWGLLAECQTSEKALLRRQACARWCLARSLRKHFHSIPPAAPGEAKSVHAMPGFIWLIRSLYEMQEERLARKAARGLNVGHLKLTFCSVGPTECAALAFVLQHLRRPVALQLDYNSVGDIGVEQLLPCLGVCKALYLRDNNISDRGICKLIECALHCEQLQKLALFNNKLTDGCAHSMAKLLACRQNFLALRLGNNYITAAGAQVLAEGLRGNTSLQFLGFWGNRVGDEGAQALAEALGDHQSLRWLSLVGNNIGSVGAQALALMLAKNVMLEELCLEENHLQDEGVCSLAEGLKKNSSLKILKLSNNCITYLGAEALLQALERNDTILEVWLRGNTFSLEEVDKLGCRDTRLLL

HEK293 [6] = assay: NOD1 signaling inhibitors, primary screen, cell-based, luminescence, uHTS (AID 1578); type: functional; conditions: Homo sapiens
HEK293 [7] = assay: NOD2 signaling inhibitors in MDP-stimulated cells, cell-based, uHTS, luminescence (AID 2001); type: functional; conditions: Homo sapiens
Prothrombin = Prothrombin (Homo sapiens, UniProt P00734); assay: Thrombin 1536 HTS Dose Response Confirmation. [Related pubchem assays: 1046 (Thrombin 1536 HTS; hits were confirmed in this assay)]; type: functional
HEK293 [8] = assay: cells; type: functional, cell-based; conditions: Homo sapiens
HEK293 [9] = assay: cells; type: functional, cell-based; conditions: Homo sapiens; remark: listed apart in the source
HEK293 [10] = assay: cells; type: functional, cell-based; conditions: Homo sapiens; remark: listed apart in the source
Estrogen receptor = biological target: T2, Estrogen receptor (Homo sapiens, UniProt P03372);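 note: potency for inhibiting coactivator peptide recruitment to the receptor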
T2 sequence (P03372 whole entry): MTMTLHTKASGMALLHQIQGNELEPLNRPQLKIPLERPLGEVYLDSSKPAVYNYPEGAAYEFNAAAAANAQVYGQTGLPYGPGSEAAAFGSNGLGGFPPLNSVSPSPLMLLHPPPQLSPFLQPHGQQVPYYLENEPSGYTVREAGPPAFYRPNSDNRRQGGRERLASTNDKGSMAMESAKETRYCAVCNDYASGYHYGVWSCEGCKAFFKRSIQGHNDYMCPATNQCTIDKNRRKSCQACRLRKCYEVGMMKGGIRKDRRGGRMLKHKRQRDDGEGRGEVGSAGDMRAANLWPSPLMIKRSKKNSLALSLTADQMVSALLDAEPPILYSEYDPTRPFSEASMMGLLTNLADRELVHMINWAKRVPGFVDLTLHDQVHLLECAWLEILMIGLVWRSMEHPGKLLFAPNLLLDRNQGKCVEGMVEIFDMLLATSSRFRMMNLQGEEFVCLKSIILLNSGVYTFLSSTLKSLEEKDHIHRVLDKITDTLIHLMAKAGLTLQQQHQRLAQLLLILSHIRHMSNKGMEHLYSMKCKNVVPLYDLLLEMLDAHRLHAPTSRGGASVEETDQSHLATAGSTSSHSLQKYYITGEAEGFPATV

Estrogen receptor beta = Estrogen receptor beta (Homo sapiens, UniProt Q92731);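 note: recombinant ER-beta bound to coactivator SRC1 peptide in presence of estradiol agonist; inhibitors block coactivator peptide binding and lower the FRET signal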
Chain of Estrogen receptor beta (Q92731 whole entry): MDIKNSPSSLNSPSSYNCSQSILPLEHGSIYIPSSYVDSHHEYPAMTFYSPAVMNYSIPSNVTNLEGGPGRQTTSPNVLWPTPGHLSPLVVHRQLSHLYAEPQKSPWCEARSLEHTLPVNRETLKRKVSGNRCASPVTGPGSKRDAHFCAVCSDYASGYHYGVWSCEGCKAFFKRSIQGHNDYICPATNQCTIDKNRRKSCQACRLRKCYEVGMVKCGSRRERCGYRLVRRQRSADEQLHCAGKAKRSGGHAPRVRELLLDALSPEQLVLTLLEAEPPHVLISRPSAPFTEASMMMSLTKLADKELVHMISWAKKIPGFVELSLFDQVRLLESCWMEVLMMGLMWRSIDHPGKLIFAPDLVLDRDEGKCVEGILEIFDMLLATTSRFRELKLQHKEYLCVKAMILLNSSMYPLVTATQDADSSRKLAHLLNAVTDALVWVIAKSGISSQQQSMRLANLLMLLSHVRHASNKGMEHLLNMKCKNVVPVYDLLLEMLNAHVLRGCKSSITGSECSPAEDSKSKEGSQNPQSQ

In the case of Cc1cc(C)nc(SCC(=O)c2ccc(Cl)cc2Cl)n1, the IC50 [1] is reported as > 100 µM (inactive) and the IC50 [2] is reported as > 100 µM (inactive).
In the case of Cc1ccc(-c2nnc(SCC(=O)c3ccc(O)c(O)c3)n2C)cc1, the IC50 [1] is reported as > 100 µM (inactive) and the IC50 [2] is reported as 11.7 µM (active).
With CNc1ccc(Br)cc(C(=O)/C=C/c2cc(OC)ccc2OC)c1=O the AC50 (Paired box protein Pax-8) was 7.83 µM (active), the CC50 (Vero [3]) was 23.1 µM (active) and the IC50 (NS3) was 11.3 µM (not active). For the same molecule, the IC50 (Vero [4]) was 7.29 µM (active).
With Cc1nc(SCC(=O)N2CCc3ccccc3C2)c2c(C)c(C)sc2n1 the EC50 [5] was 9.64 µM (active), the EC50 (HEK293 [6]) was 6.12 µM (active) and the IC50 (HEK293 [7]) was 9.12 µM (inactive). The IC50 (Prothrombin) was > 50 µM (not active) and the IC50 (HEK293 [8]) was > 20 µM (inactive).
In the case of Cc1ccc(C)c(N2CCN(C(=O)C34CC5CC(C3)CC(n3nnc(C)n3)(C5)C4)CC2)c1, the EC50 [5] is reported as 5.6 µM (active), the EC50 (HEK293 [6]) is reported as 7.6 µM (active) and the IC50 (HEK293 [9]) is reported as 13.1 µM (active). The IC50 (HEK293 [7]) was 4.61 µM (active), the IC50 (HEK293 [10]) was 6.27 µM (active) and the IC50 (HEK293 [8]) was > 20 µM (inactive).
In the case of COc1cc(NC(=O)CSc2nc3ccccc3c(=O)n2C)ccc1NC(=O)c1ccco1, the IC50 (Estrogen receptor) is reported as 32.5 µM (not active).
In the case of CSCCOC(=O)c1[nH]c2c(c1C)C(=O)CC(c1ccco1)C2 (stereo not drawn), the IC50 (Estrogen receptor) is reported as > 50 µM (not active) and the IC50 (Estrogen receptor beta) is reported as > 50 µM (not active).
In the case of O=C(COc1ccccc1)Nc1ccc(Cl)c(-c2nc3ncccc3o2)c1, the IC50 (Estrogen receptor) is reported as > 50 µM (not active).
